Results on 65 compounds are retold here after a melting point compilation (Tetko et al.; mined from patent text by program, amines drawn as free bases though some values may be those of a salt).

Where only a bound is given, the exact number is not on record here.

A word on the melting point: it is the temperature of the solid-liquid transition. On to `CC(C)(CO)NS(=O)(=O)c1cccc(-c2cc(-c3nc(-c4ccc(C(F)(F)F)cc4)cc(C(F)(F)F)n3)ccn2)c1`, for which the melting point turned out to be 221 °C.
Turning to `COCCc1nc2c(N)nc3ccccc3c2n1CCOCCNC(=O)N1CCOCC1`, the melting point is 164 to 166 °C.
The value for `O=c1[nH]c2ccc(Cl)cc2n1CCN1CCCCC1` was 156 to 158 °C; that for `N#Cc1ncn2c1COC(=O)c1ccccc1-2` was 220 to 221 °C.
The value for `C#CCN(C)c1nc(C(=O)N(C)C)cs1` was 99 to 100 °C.
Turning to `CCOC(=O)c1cc(=O)c2ccc(OC(=S)N(C)C)cc2o1`, the melting point was in the range of 160 to 161 °C.
The value for `CC12CCC(=O)C=C1CCC1C2=CCC2(C)C(=O)CCC12` (stereo not given) was 196 to 202 °C; that for `OC(c1ccccc1)(c1ccccc1)C1CCN(CCCOc2ccccc2)CC1` was 87 to 88 °C.
In the case of `CCC(C(C)=CC(CNC(=O)c1nccnc1N)=NO)[N+](=O)[O-]` (stereo not given) it was 139 to 141 °C; in that of `CCCCCCCCCCNC(=O)c1ccccc1[N+](=O)[O-]`, 55 to 57 °C; in that of `COc1cc(C(=O)c2c(F)cccc2F)ccc1O`, 147 to 149 °C.
The value for `OCC(O)Cc1ccc(Br)cc1` (stereo not given) was 60.6 °C; that for `CC1N=C(NN2CCCCC2)NN=C1c1ccccc1` (stereo not given) was 188 to 190 °C; that for `O=C(c1ccccc1)c1ccc(S)cc1` was 72 to 75 °C.
`CCCCOc1cc2c(cc1C=Cc1ccc(C(=O)O)cc1)C(C)(C)CCC2(C)C` came in with a melting point of 194 to 196 °C.
In the case of `CCCN(CCC)CC1CCCN(CCNC(=O)N2c3ccccc3NC(=O)c3c2ccn3C)C1` (stereo not given) it was 153 to 155 °C.
For `CCn1c2ccc(C)cc2c2c3ccccc3ccc21`, the melting point fell in the range of 69 to 74 °C.
In the case of `Cc1ccc(-c2ccccc2)cc1Cn1c(C(F)F)nn(C)c1=O`, the melting point is 72.7 °C.
In the case of `COc1ccc(C(=O)Nc2ccc(N3CCC(NC[C@H](O)COc4cccc5[nH]c6ccccc6c45)CC3)cc2)cc1OC`, the melting point was in the range of 183 to 191 °C.
The compound `CCN(CC)CCc1ccc2[nH]c(C)c(C(=O)O[C@@H](C)c3ccccc3)c2c1` had a melting point of 95 to 97 °C.
For `CN(C)SN(C)C(=O)ON=C1SCC(=O)NC1(C)C`, the melting point was 165 to 167 °C.
With `CC(C)c1nc(O)c(Br)c(O)n1`, the melting point is > 250 °C.
In the case of `Cn1cncc1C(c1ccc(Cl)cc1)c1ccc2c(c1)C(c1cccc(Cl)c1)SCc1nnnn1-2` (stereo not given) it was 162 °C; in that of `O=C1COc2cc(C(=O)N3CCOCC3)ccc2N1`, 186 to 188 °C; in that of `COC(C)=CC(=O)Nc1cccc(C(F)(F)F)c1`, 90 °C.
`COc1cc(N)c(Cl)cc1C(=O)NC1CCN(CCNC(=O)C(CO)c2ccccc2)CC1OC` (stereo not given) showed a melting point of 114 °C.
In the case of `ClCOc1ccc(-c2ccccc2)cc1`, the melting point is 67 to 70 °C.
Compound `CC1C(=O)Oc2c(Oc3ccccc3F)cccc21` (stereo not given) displayed a melting point of 70 to 71.5 °C.
The value for `C[Si](C)(C)c1ccc2c(c1)Cc1cc([Si](C)(C)C)ccc1-2` was 117 to 118 °C.
The compound `CCOC(=O)c1c(O)c2cc(Br)ccc2c(=O)n1CC1CC1` yielded a melting point of 64 to 65 °C.
In the case of `CC(C)(C)c1nc2cc(N3CCCC3)c(N=C=S)cc2s1` it was 89 to 90 °C; in that of `CC1=C(C(=O)OC(C)C)C(c2cccc([N+](=O)[O-])c2)n2c(cc(=O)n2S(=O)(=O)c2ccccc2)N1` (stereo not given), 187 to 188 °C; in that of `CC(C)CNC(=O)/C=C/c1cccc(Cl)c1`, 112 °C.
The value for `Cc1nn(-c2cc([N+](=O)[O-])c(Cl)cc2F)c(Cl)c1Br` was 135 to 137 °C; that for `CN(c1cccc2c(F)c(C3=NCC(CC(=O)O)S3)[nH]c12)S(=O)(=O)c1cccs1` (stereo not given) was 213 to 214 °C; that for `CCOC(=O)CCC1(NC(=O)c2ccc3ccccc3c2)C(=O)N(c2ccccc2)c2cc(OCC)ccc21` (stereo not given) was 195 to 196 °C.
The value for `CCCCCC(=NOC)c1cc(C#N)c(=O)[nH]c1C` was 159 to 165 °C; that for `N#CCN1C(=O)C2(COc3cc4c(cc32)OCCO4)c2ccccc21` (stereo not given) was 161 to 162 °C; that for `Cc1c(C)c2c(c(C)c1N)CC(C)(CCc1ccc(F)cc1)O2` (stereo not given) was 62 to 63 °C.
In turn, `CC(C)CNc1nc(-c2ccccc2)c(Cl)n2c(Br)cnc12` had a melting point of 138 °C.
The value for `CC(C)CCCC(C)CCCC(C)CCCC(C)CCP(=O)(O)O` (stereo not given) was 69 to 72 °C; that for `COC(=O)NC1=NCC(c2ccccc2C)N1C` (stereo not given) was 158 to 161 °C.
`CCOC(=O)N(c1cccc(C(F)(F)F)c1)c1ccccc1N` had a melting point of 105 to 108 °C.
The value for `O=C(c1c2n(c3ccccc13)CCNCC2)C(F)(F)F` was 131 to 133 °C.
In the case of `N#Cc1cc(-c2nc3cncnc3s2)ccc1Oc1ccccc1O` it was 255 to 256 °C; in that of `COc1cccc(NC(=O)NCc2ccc(Nc3n[nH]c4ncnc(Nc5cccc(Cl)c5)c34)cc2)c1`, 157 to 160 °C; in that of `[O-][N+]1=C(c2ccccc2Cl)c2cc(Cl)ccc2-c2ncncc2C1`, 216 to 217 °C.
`COc1ccc(-c2cc(C)c(C(=O)O)c(C)c2)cc1OC` yielded a melting point of 175 to 176 °C.
Take `Nc1cc(C(F)(F)F)c(-c2cc(Br)c(N)cc2C(F)(F)F)cc1Br`: the melting point was 154 to 157 °C.
The value for `CCCCCCCCCCCCCCCCC(O)CNCCO` (stereo not given) was 84.5 to 86 °C; that for `COC(=O)CCc1ccc(NC(=O)NNC=O)cc1` was 146 to 148 °C.
As to `OC1CSC(Oc2cncc(-c3ccc(F)cc3Cl)c2)C(O)C1O` (stereo not given), the melting point is 208 to 211 °C.
Regarding `Nc1c(F)c(-c2ccc(C(F)(F)F)nc2)nc(C=O)c1Cl`, the melting point was in the range of 147 to 149 °C.
In the case of `CC(C)(C)c1ccc(OC(Cc2ccc(OCCNC(=O)c3ccc(-c4ccccn4)cc3)cc2)C(=O)O)cc1` (stereo not given), the melting point lay in the range of 94 to 96 °C.
Consider `CCNC(=O)ON=C1N=C(C)C(C)(C)S1`, for which the melting point was 84 to 86 °C.
`CC(C(=O)O)c1ccc([N+](=O)[O-])c(F)c1` (stereo not given): the melting point was 74 to 77 °C.
Compound `COc1cc(NC(=O)N[C@H]2CCCCNC2=O)c(O)c(C(C)(C)C)c1` registered a melting point of 178 to 179 °C.
`O=S1(=O)N=CNc2ccc(F)cc21` displayed a melting point of 260 to 263 °C.
The value for `CCOc1ccc(/C=C/c2cc(OC)cc(OC)c2)cc1` was 54 to 55 °C; that for `CCc1ncc2n1N=C(c1ccc([N+](=O)[O-])cc1)c1cc3c(cc1C2)OCO3` was 243 to 245 °C.
The value for `O=[N+]([O-])c1ccc(N2CCN(c3ccc(O)cc3)CC2)cc1` was 260 °C; that for `N#CC(Nc1ccc(SSc2ccc(NC(C#N)c3ccc(S(N)(=O)=O)cc3)cc2)cc1)c1ccc(S(N)(=O)=O)cc1` (stereo not given) was 251 to 255 °C.
With `NC(Cc1ccccc1)C(=O)Nc1nc2ccccc2c(=O)o1` (stereo not given), the melting point fell in the range of 215 to 216 °C.
In turn, `CC(C)c1ccc(NC(=O)c2ccc(C(=O)O)cn2)cc1C(C)C` returned a melting point of 188 to 190 °C.
Regarding `CC(C)(C)OC(=O)Nc1cc(N2CCC(O)CC2)c(I)cc1[N+](=O)[O-]`, the melting point was 58 to 60 °C.
